# Data published in US20250064941A1, “SIGLEC LIGANDS, CONJUGATES, AND METHODS OF USE THEREOF” (Osprey Biopharmaceuticals, Inc., priority 2023, published 2025).
# pKd: −log10 of the molar value.
# What was measured:
# [1] = molecular target: T1, mouse Siglec-2-Fc-Avi (CD22) (Mus musculus, UniProt P35329); assay: SPR binding affinity to mouse CD22; conditions: steady-state analysis
# T1 construct: made in house
# T1 sequence (P35329 22-708 limits assumed): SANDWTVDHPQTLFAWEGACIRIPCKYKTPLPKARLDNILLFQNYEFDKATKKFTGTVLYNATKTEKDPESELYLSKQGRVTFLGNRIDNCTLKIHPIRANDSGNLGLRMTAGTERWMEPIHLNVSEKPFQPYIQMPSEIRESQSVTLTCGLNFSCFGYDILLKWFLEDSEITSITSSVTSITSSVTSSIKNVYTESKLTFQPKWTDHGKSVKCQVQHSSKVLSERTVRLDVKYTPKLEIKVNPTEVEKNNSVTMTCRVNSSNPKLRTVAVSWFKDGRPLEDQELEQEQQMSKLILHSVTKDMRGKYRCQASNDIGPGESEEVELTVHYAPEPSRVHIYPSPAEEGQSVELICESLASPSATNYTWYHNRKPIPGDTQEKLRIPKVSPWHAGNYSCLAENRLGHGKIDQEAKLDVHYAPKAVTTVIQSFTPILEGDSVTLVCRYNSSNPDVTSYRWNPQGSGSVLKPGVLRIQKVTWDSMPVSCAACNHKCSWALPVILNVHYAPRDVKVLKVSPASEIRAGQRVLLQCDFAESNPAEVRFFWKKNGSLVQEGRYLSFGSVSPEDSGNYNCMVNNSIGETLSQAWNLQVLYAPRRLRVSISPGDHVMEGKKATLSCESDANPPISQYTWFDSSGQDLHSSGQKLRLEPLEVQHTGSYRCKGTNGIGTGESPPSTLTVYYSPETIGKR
# How it was run: (§1)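 Native sialic acid residues are removed from the receptor enzymatically (4 hours at 37° C.) prior to streptavidin capture of the biotinylated protein. Ligand compounds then flow over in HEPES-buffered saline, pH 7.5, containing 0.05% Tween-20 and 1% DMSO, and binding is evaluated at steady state.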
# cynomolgus Siglec-2/CD22 = cynomolgus Siglec-2/CD22 (Macaca fascicularis, UniProt A0A2K5WCZ6); assay: biochemical; format: binding; conditions: SPR, steady-state analysis; read-out: Affinity cyno CD22
# Sequence of cynomolgus Siglec-2/CD22 (A0A2K5WCZ6 entry or part of it): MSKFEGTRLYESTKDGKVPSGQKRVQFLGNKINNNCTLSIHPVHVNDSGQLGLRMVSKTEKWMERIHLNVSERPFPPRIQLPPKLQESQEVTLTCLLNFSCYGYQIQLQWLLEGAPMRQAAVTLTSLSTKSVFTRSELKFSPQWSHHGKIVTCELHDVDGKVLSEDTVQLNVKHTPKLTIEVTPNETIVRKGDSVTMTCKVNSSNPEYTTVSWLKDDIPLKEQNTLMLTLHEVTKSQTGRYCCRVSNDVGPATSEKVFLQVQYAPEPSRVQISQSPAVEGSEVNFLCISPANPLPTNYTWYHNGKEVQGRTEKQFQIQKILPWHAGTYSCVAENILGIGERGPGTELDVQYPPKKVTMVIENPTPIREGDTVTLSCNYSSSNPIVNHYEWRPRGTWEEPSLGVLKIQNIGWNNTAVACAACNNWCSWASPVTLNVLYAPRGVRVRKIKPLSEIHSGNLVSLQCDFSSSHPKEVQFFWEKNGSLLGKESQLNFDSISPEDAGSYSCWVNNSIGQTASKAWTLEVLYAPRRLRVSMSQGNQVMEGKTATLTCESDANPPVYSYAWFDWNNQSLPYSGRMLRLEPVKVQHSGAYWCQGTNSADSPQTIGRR
# How it was run: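 Compound binding measured by steady-state SPR analysis, 120 s dissociation, in HEPES-NaCl-Tween buffer pH 7.5 containing 1% DMSO, DMSO solvent-corrected. Surface: cyno CD22, sialic acids first stripped by SialoExo for 4 h at 37° C., then amine-coupled onto CM5.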
# [2] = molecular target: T2, human Siglec-2/CD22 protein (Homo sapiens, UniProt P20273); assay: SPR binding affinity to human CD22; conditions: steady-state analysis
# T2 construct: purchased Acro Biosystems SI2-H82E3
# T2 sequence (P20273 20-847): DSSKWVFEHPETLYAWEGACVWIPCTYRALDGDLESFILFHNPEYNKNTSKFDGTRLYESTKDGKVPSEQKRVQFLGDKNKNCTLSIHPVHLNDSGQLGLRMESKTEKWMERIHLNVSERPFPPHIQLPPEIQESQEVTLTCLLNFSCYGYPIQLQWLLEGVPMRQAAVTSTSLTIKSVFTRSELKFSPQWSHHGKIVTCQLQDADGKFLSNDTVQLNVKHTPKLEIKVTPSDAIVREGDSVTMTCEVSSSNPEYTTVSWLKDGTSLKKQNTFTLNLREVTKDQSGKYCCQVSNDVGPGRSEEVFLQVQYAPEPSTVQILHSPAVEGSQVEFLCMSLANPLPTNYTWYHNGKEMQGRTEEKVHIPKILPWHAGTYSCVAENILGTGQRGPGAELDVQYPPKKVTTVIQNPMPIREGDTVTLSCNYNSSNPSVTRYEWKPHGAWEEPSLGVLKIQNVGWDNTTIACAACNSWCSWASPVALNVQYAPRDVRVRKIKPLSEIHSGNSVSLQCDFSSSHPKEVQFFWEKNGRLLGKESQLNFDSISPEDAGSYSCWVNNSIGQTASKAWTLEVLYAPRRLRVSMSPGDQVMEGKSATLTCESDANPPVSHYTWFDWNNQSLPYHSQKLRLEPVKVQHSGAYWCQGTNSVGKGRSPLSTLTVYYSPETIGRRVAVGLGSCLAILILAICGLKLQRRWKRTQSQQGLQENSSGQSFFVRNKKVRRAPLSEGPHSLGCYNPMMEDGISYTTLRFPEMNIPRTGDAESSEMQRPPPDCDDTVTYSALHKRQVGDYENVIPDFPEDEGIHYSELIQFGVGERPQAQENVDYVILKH
# How it was run: as §1
SMILES,pKd [1],pKd (cynomolgus Siglec-2/CD22),pKd [2]
"C#CCOCCOCCO[C@]1(C(=O)NS(C)(=O)=O)C[C@H](O)[C@@H](NC(=O)CO)[C@H]([C@H](O)[C@H](O)CNC(=O)Cc2ccc(-c3ccc(O)cc3)cc2)O1 [Compound 65, (2R,4S,5R,6R)-6-((1R,2R)-1,2-dihydroxy-3-(2-(4′-hydroxy-[1,1′-biphenyl]-4-yl)acetamido)propyl)-4-hydroxy-5-(2-hydroxyacetamido)-N-(methylsulfonyl)-2-(2-(2-(prop-2-yn-1-yloxy)ethoxy)ethoxy)tetrahydro-2H-pyran-2-carboxamide]",< 5.00,< 5.00,< 5.00
"CCCNC(=O)CCOCCOCCOCCn1cc(CCOc2ccc(CO[C@]3(C(=O)O)C[C@H](O)[C@@H](NC(N)=O)[C@H]([C@H](O)[C@H](O)CNC(=O)Cc4ccc(Cl)cc4)O3)cc2)nn1 [Compound 222, (2R,4S,5R,6R)-6-((1R,2R)-3-(2-(4-chlorophenyl)acetamido)-1,2-dihydroxypropyl)-4-hydroxy-2-((4-(2-(1-(12-oxo-3,6,9-trioxa-13-azahexadecyl)-1H-1,2,3-triazol-4-yl)ethoxy)benzyl)oxy)-5-ureidotetrahydro-2H-pyran-2-carboxylic acid]",> 6.00,> 6.00,> 6.00
"C#CCCOc1ccc(CO[C@]2(C(=O)O)C[C@H](O)[C@@H](NC(=O)CO)[C@H]([C@H](O)[C@H](O)CNC(=O)Cc3ccc(-c4ccc(O)cc4)cc3)O2)cc1O [Compound 73, (2R,4S,5R,6R)-2-((4-(but-3-yn-1-yloxy)-3-hydroxybenzyl)oxy)-6-((1R,2R)-1,2-dihydroxy-3-(2-(4′-hydroxy-[1,1′-biphenyl]-4-yl)acetamido)propyl)-4-hydroxy-5-(2-hydroxyacetamido)tetrahydro-2H-pyran-2-carboxylic acid]",> 6.00,> 6.00,> 6.00
"C#CCCOc1cccc(CO[C@]2(C(=O)O)C[C@H](O)[C@@H](NC(C)=O)[C@H]([C@H](O)[C@H](O)CNC(=O)c3cccc(Oc4ccccc4)c3)O2)c1 [Compound 23, (2R,4S,5R,6R)-5-acetamido-2-((3-(but-3-yn-1-yloxy)benzyl)oxy)-6-((1R,2R)-1,2-dihydroxy-3-(3-phenoxybenzamido)propyl)-4-hydroxytetrahydro-2H-pyran-2-carboxylic acid]",< 5.00,5.00 to 6.00,5.00 to 6.00
"C#CCOCCCCCCO[C@]1(C(=O)O)C[C@H](O)[C@@H](NC(=O)CN(C)C)[C@H]([C@H](O)[C@H](O)CNC(=O)Cc2ccc(Cl)cc2)O1 [Compound 25, (2R,4S,5R,6R)-6-((1R,2R)-3-(2-(4-chlorophenyl)acetamido)-1,2-dihydroxypropyl)-5-(2-(dimethylamino)acetamido)-4-hydroxy-2-((6-(prop-2-yn-1-yloxy)hexyl)oxy)tetrahydro-2H-pyran-2-carboxylic acid]",5.00 to 6.00,5.00 to 6.00,< 5.00
"O=C(Cc1ccc(Cl)cc1)NC[C@@H](O)[C@@H](O)[C@@H]1O[C@@](SCc2cccc(C(=O)O)c2)(C(=O)O)C[C@H](O)[C@H]1NC(=O)CO [Compound 116, (2S,4S,5R,6R)-2-((3-carboxybenzyl)thio)-6-((1R,2R)-3-(2-(4-chlorophenyl)acetamido)-1,2-dihydroxypropyl)-4-hydroxy-5-(2-hydroxyacetamido)tetrahydro-2H-pyran-2-carboxylic acid]",5.00 to 6.00,> 6.00,> 6.00
"C#CCCOc1ccc(CS[C@]2(C(=O)O)C[C@H](O)[C@@H](NC(=O)CO)[C@H]([C@H](O)[C@H](O)CNC(=O)Cc3ccc(Cl)cc3)O2)cc1 [Compound 122, (2S,4S,5R,6R)-2-((4-(but-3-yn-1-yloxy)benzyl)thio)-6-((1R,2R)-3-(2-(4-chlorophenyl)acetamido)-1,2-dihydroxypropyl)-4-hydroxy-5-(2-hydroxyacetamido)tetrahydro-2H-pyran-2-carboxylic acid]",> 6.00,> 6.00,> 6.00
"C#CCCOc1ccc(CO[C@]2(C(=O)O)C[C@H](O)[C@@H](NC(=O)CO)[C@H]([C@H](O)[C@H](O)CNC(=O)Cc3cccc(NC(C)=O)c3)O2)cc1 [Compound 164, (2R,4S,5R,6R)-6-((1R,2R)-3-(2-(3-acetamidophenyl)acetamido)-1,2-dihydroxypropyl)-2-((4-(but-3-yn-1-yloxy)benzyl)oxy)-4-hydroxy-5-(2-hydroxyacetamido)tetrahydro-2H-pyran-2-carboxylic acid]",5.00 to 6.00,5.00 to 6.00,5.00 to 6.00
"C#CCOCCOCCO[C@]1(C(=O)O)C[C@H](O)[C@@H](NC(=O)CO)[C@H]([C@H](O)[C@H](O)CNC(=O)c2ccc(Cl)cc2)O1 [Compound 30, (2R,4S,5R,6R)-6-((1R,2R)-3-(4-chlorobenzamido)-1,2-dihydroxypropyl)-4-hydroxy-5-(2-hydroxyacetamido)-2-(2-(2-(prop-2-yn-1-yloxy)ethoxy)ethoxy)tetrahydro-2H-pyran-2-carboxylic acid]",< 5.00,5.00 to 6.00,5.00 to 6.00

# The next lines start with the values.
pKd [1],pKd (cynomolgus Siglec-2/CD22),pKd [2],SMILES
< 5.00,5.00 to 6.00,5.00 to 6.00,"C#CCOCCCCCCO[C@]1(C(=O)O)C[C@H](O)[C@@H](NC(=O)CC2CC2)[C@H]([C@H](O)[C@H](O)CNC(=O)Cc2ccc(Cl)cc2)O1 [Compound 88, (2R,4S,5R,6R)-6-((1R,2R)-3-(2-(4-chlorophenyl)acetamido)-1,2-dihydroxypropyl)-5-(2-cyclopropylacetamido)-4-hydroxy-2-((6-(prop-2-yn-1-yloxy)hexyl)oxy)tetrahydro-2H-pyran-2-carboxylic acid]"
> 6.00,> 6.00,> 6.00,"C#CCNC(=O)c1ccc(CS[C@]2(C(=O)O)C[C@H](O)[C@@H](NC(=O)CO)[C@H]([C@H](O)[C@H](O)CNC(=O)Cc3ccc(Cl)cc3)O2)cc1 [Compound 187, (2S,4S,5R,6R)-6-((1R,2R)-3-(2-(4-chlorophenyl)acetamido)-1,2-dihydroxypropyl)-4-hydroxy-5-(2-hydroxyacetamido)-2-((4-(prop-2-yn-1-ylcarbamoyl)benzyl)thio)tetrahydro-2H-pyran-2-carboxylic acid]"
> 6.00,5.00 to 6.00,5.00 to 6.00,"C#CCCOc1ccc(CO[C@]2(C(=O)O)C[C@H](O)[C@@H](N)[C@H]([C@H](O)[C@H](O)CNC(=O)Cc3ccc(-c4ccc(O)cc4)cc3)O2)cc1 [Compound 55, (2R,4S,5R,6R)-5-amino-2-((4-(but-3-yn-1-yloxy)benzyl)oxy)-6-((1R,2R)-1,2-dihydroxy-3-(2-(4′-hydroxy-[1,1′-biphenyl]-4-yl)acetamido)propyl)-4-hydroxytetrahydro-2H-pyran-2-carboxylic acid]"
> 6.00,5.00 to 6.00,> 6.00,"C#CCCOc1ccc(CO[C@]2(C(=O)O)C[C@H](O)[C@@H](NC(=O)CO)[C@H]([C@H](O)[C@H](O)CNC(=O)Cc3ccc(-c4ccc(NC(C)=O)cc4)cc3)O2)cc1 [Compound 50, (2R,4S,5R,6R)-6-((1R,2R)-3-(2-(4′-acetamido-[1,1′-biphenyl]-4-yl)acetamido)-1,2-dihydroxypropyl)-2-((4-(but-3-yn-1-yloxy)benzyl)oxy)-4-hydroxy-5-(2-hydroxyacetamido)tetrahydro-2H-pyran-2-carboxylic acid]"
